# Test results: patent US20250367170A1, “TOPICAL ANGIOTENSIN II RECEPTOR BLOCKERS (ARBS) FOR TREATING EYE CONDITIONS” (The Cleveland Clinic Foundation, priority 2022, published 2025)
# Experiments:
# Format in all cases: in vivo, New Zealand White rabbits
# collagen type IV = experiment: IHC collagen type IV intensity in anterior and posterior stroma after alkali burn; settings: one month
# Protocol: Multiplex immunohistochemistry (IHC) was performed using previously described methods^8 and primary antibodies (Table 7) confirmed by western blotting and IHC to recognize rabbit antigens or isotypic control antibodies (Thermo Fisher Scientific, Waltham, MA), and secondary fluorescent tagged antibodies (Table 7). The collagen type IV antibody (Cat. #AB769, Millipore, Temecula CA) was raised against purified human and bovine collagen type IV that had been affinity purified with human and bovine collagen type IV crosslinked to agarose and cross-absorbed by the manufacturer with human and bovine collagens type I, II, III, V and VI to eliminate cross-reactivity. This collagen type IV antibody was shown previously to bind rabbit collagen IV in IHC,^8,9 and recognizes the alpha-1/alpha-2 chains but not the alpha-3 to alpha-6 chains. The keratocan antibody is raised against peptide […]-OH (SEQ ID NO:1). This marker was used to identify keratocytes in situ. […] All corneas in each group had IHC for collagen type IV. Images from each cornea were converted to uniform 300 DPI, 875×568 pixel, files. […] The staining intensity within each box was determined with the analyze histogram function and the mean of three boxes was the intensity value in the anterior or posterior stroma for that cornea.
# [1] = system: central corneal neovascularization (CNV); experiment: Corneal angiography for central corneal neovascularization after alkali burn; settings: topical six times per day, one month, all four vehicle corneas positive
# Protocol: (§1) Alkali injuries were produced in one eye of rabbits with previously published methods^10 using 1N sodium hydroxide (Sigma, St. Louis, MO) in balanced salt solution (BSS, 0.64% sodium chloride, 0.075% potassium chloride, 0.048% calcium chloride dihydrate, 0.03% magnesium chloride hexahydrate, 0.39% sodium acetate trihydrate, 0.17% sodium citrate dihydrate, pH 7.5, Alcon, Ft. Worth, TX) and a 5 mm diameter circular Whatman No. 1 filter paper (Cat #1001-6508, Fisher Scientific) wetted with 100 μl of 1N NaOH solution. Following the alkali burn injury, the cornea was irrigated profusely with BSS. Each injured cornea also received one drop of ciprofloxacin (Alcon, Ft. Worth, TX, USA) ten minutes after surgery and four times a day for one week and at least 15 minutes apart from the study medications.
# (§2) Worth TX), at least 5 minutes apart, or 4) 50 μl of BSS.
# All corneas had fluorescent angiography at the peak of dye passage in the cornea immediately after injection of 1.5 ml of 10% sodium fluorescein (McKesson, Irvine, TX) in the central ear vein with the slit lamp system and digital camera system using a “barrier filter” that only transmitted 520-530 nm, the peak of fluorescein emission, with broad illumination of the cornea, as previously described.^11
# [2] = system: rabbit corneas after 1N NaOH alkali burn injury; experiment: Slit lamp stromal opacity area and intensity (ImageJ) one month after alkali burn; settings: topical 0.2 mg/ml losartan and/or 1% prednisolone acetate six times per day
# Protocol: All animal treatments and care were approved by the Institutional Animal Care and Use Committee (IACUC) at the Cleveland Clinic Foundation (Cleveland, OH, USA) and the Animal Care and Use Review Office of the Department of the Army (Fort Detrick, MD). All rabbits were treated in accordance with the tenets of the ARVO Statement for the Use of Animals in Ophthalmic and Vision Research. Sixteen 10- to 15-week-old female New Zealand White rabbits weighing 2.5 to 3.0 kg each were included in this example.
# as §1, §2
# At one month after sodium hydroxide exposure and treatments, with the rabbits under ketamine-xylazine general anesthesia, the eyes were dilated with two drops of 1% tropicamide (Akom Co., Lake Forest, IL) for thirty minutes. The study eye in each rabbit had slit lamp photographs with standardized illumination level and angle of illumination at 20× magnification with a Topcon (Oakland, NJ, USA) SL-D7 slit lamp photography system. For each study eye, the total area of opacity was determined by outlining the opacity with the freehand selection tool using ImageJ 1.53a analysis software calibrated to mm^2. The “raw internal density” in pixels for the opacified area in each cornea was also determined using ImageJ.
smiles,measurement,setting,value
CC(=O)OCC(=O)[C@@]1(O)CC[C@H]2[C@@H]3CCC4=CC(=O)C=C[C@]4(C)[C@H]3[C@@H](O)C[C@@]21C [prednisolone acetate],mean intensity units of collagen type IV in the anterior stroma vs vehicle,collagen type IV,trend towards a decrease
same,corneas (of four) that developed central corneal neovascularization,[1],one
same,"total corneal opacity area measured with ImageJ, vs BSS vehicle",[2],decreased
same,"total opacity in pixels in the opacified area of cornea, vs vehicle BSS group",[2],trended towards decreased total opacity
